# According to patent publication US6669951B2, “Compositions and methods for enhancing drug delivery across and into epithelial tissues” (CellGate, Inc., priority 1999, dated 2003):
# Peptide text beside a SMILES is read from it. * marks the point of attachment. FITC = O=C1OC2(c3ccc(O)cc3Oc3cc(O)ccc32)c2ccc(NC(=S)*)cc21; Ahx = NCCCCCC(=O)O
# Columns and labels:
# skin of nude mice = assay: Penetration of biotinylated conjugates into skin of nude mice (streptavidin staining); conditions: 1 mM-100 μM in PBS, nude mice, thirty, sixty, 120 minutes
# Protocol: Samples (100 μl) were applied as a liquid without excipient, prevented from dispersing by a Vaseline™ barrier, and allowed to penetrate for fifteen minutes. At the end of this period the animal was sacrificed, the relevant sections of skin were excised, embedded in mounting medium (OCT), and frozen. Frozen sections (5 microns) were cut using a cryostat, collected on slides, and stained with fluorescently labeled streptavidin (Vector Laboratories, Burlingame, Calif.). The slides were fixed in acetone at 4° C. for ten minutes, air dried, soaked in PBS for five minutes, blocked with normal goat serum for five minutes, and washed with PBS for five minutes. The section was stained by incubation with fluorescently labeled streptavidin at 30 μg/ml for thirty minutes, washed with PBS, counterstained with propidium iodide (1 μg/ml) for two minutes, and the section was mounted with Vectashield™ mounting media. Slides were analyzed by fluorescent microscopy. Parallel studies were done using streptavidin-horse radish peroxidase rather than fluorescein-streptavidin. The biotinylated peptide was visualized by treatment of the sections with the horseradish peroxidase substrate diaminobenzadine, and visualization with light microscopy.
# Alternatively, sample (100 μl) was applied as a liquid without excipient and prevented from evaporating by wrapping plastic wrap over the sample sealed with Vaseline™. […] At the end of this period animal was sacrificed, the relevant section of skin was excised, embedded in mounting medium (OCT) and frozen. […] Slides were analyzed by fluorescent microscopy.
# At the end of this period animal was sacrificed, the relevant section of skin was excised, embedded in mounting medium (OCT) and frozen. […] Slides were analyzed by fluorescent microscopy
# (§1) At the end of this period animal was sacrificed, the relevant section of skin was excised, embedded in mounting medium (OCT) and frozen. […] Slides were analyzed by fluorescent microscopy.
# as §1
# Jurkat cells [1] = assay: FACS cellular uptake assay; type: cell-based, human; conditions: for cellular uptake relative to Tat49-57: Jurkat cells, 2% FCS; for additional loss of intracellular fluorescence from the one amino acid truncated analogs: further deletion of one residue
# Protocol: (§2) The accuracy of this method for determining concentration was established by weighing selected samples and dissolving them in a known amount of PBS buffer. The concentrations determined by UV spectroscopy correlated with the amounts weighed out manually. Jurkat cells (human T cell line), murine B cells (CH27), or human PBL cells were grown in 10% fetal calf serum and DMEM and each of these were used for cellular uptake experiments. […] The microtiter plates were centrifuged and the cells were isolated, washed with cold PBS (3×250 μL), incubated with 0.05% trypsin/0.53 mM EDTA at 37° C. for 5 min, washed with cold PBS, and resuspended in PBS containing 0.1% propidium iodide. The cells were analyzed using fluorescent flow cytometry (FACScan, Becton Dickinson) and cells staining with propidium iodide were excluded from the analysis. The data presented is the mean fluorescent signal for the 5000 cells collected.
# Inhibition of Cellular Uptake with Sodium Azide. The assays were performed as previously described with the exception that the cells used were preincubated for 30 min with 0.5% sodium azide in 2% FCS/PBS buffer prior to the addition of fluorescent peptides and the cells were washed with 0.5% sodium azide in PBS buffer. All of the cellular uptake assays were run in parallel in the presence and absence of sodium azide.
# To determine the structural requirements for the cellular uptake of short arginine-rich peptides, a series of fluorescently-labeled truncated analogues of Tat49-57 were synthesized using standard solid-phase chemistry. See, e.g., Atherton, E. et al. SOLID-PHASE PEPTIDE […] (IRL: Oxford, Engl. 1989). A fluorescein moiety was attached via an aminohexanoic acid spacer on the amino termini. The ability of these fluorescently labeled peptides to enter Jurkat cells was then analyzed using fluorescent activated cell sorting (FACS). The peptide constructs tested were Tat49-57 (Fl-ahx-[…]; SEQ ID NO:8): Tat49-56 (Fl-ahx-[…]; SEQ ID NO:9), Tat49-55 (Fl-ahx-RKKRRQR; SEQ ID NO: 10), Tat50-57 (Fl-ahx-[…]; SEQ ID NO: 11), and Tat51-57 (Fl-ahx-KRRQRRR; SEQ ID NO: 12). Differentiation between cell surface binding and internalization was accomplished throughout by running a parallel set of assays in the presence and absence of sodium azide. Because sodium azide inhibits energy-dependent cellular uptake but not cell surface binding, the difference in fluorescence between the two assays provided the amount of fluorescence resulting from internalization.
# Jurkat cells [2] = assay: Cellular uptake kinetics assay (Michaelis-Menton); type: cell-based, human; design: Vmax: unit not given here; conditions: for Km / Vmax / rate of entering cells, fold faster than Tat47-59: Jurkat cells; for Km / Vmax: incubation 30, 60, 120, 240 seconds, 3° C.; for rate of entering cells, fold faster than Tat47-59: from Km values
# Protocol: as §2
# Cellular Uptake Kinetics Assay. The assays were performed as previously described except the cells were incubated for 0.5, 1, 2, and 4 min at 4° C. in triplicate in 2% FCS/PBS (50 μl) in microtiter plates (96 well). The reactions were quenched by diluting the samples into 2% FCS/PBS (5 mL). The assays were then worked up and analyzed by fluorescent flow cytometry as previously described.
# The rates of cellular uptake were determined after incubation (3° C.) of the peptides in Jurkat cells for 30, 60, 120, and 240 seconds (Table 1).
# [3] = tested on: ear inflammation in Balb/c mice; assay: Murine contact dermatitis (DNFB), ear inflammation; type: in vivo, mouse
# Protocol: Balb/c (6-7 weeks) mice were painted on the abdomen with 100 μl of 0.7% DNFB in acetone olive oil (95:5). Three days later both ears of the animals were restimulated with 0.5% DNFB in acetone. […] Ear inflammation was measured 24 hours after restimulation using a spring loaded caliper. The percent reduction of inflammation was calculated using the following formula […], where t=thickness of the treated ear, n=the thickness of a normal untreated ear, and u=thickness of an inflamed ear without any treatment. N=20 animals in each group.
molecule,measurement,setting,value
CC(=O)O[C@H]1C(=O)[C@@]2(C)[C@H]([C@H](OC(=O)c3ccccc3)[C@]3(O)C[C@H](OC(=O)[C@H](OC(=O)NCCCC[C@H](NC(=O)[C@@H](CCCNC(=N)N)NC(=O)[C@@H](CCCNC(=N)N)NC(=O)[C@@H](CCCNC(=N)N)NC(=O)[C@@H](CCCNC(=N)N)NC(=O)[C@@H](CCCNC(=N)N)NC(=O)[C@@H](CCCNC(=N)N)NC(=O)[C@@H](CCCNC(=N)N)NC(=O)CCCCCNC(=O)CCCC[C@@H]4SC[C@@H]5NC(=O)N[C@@H]54)C(N)=O)[C@@H](NC(=O)c4ccccc4)c4ccccc4)C(C)=C1C3(C)C)[C@]1(OC(C)=O)CO[C@@H]1C[C@@H]2O [B-aca-r7-K-taxol],penetration of drug conjugates into skin,skin of nude mice,effectively entered into and across the epidermis and into the dermis of the skin of nude mice
N=C(N)NCCC[C@H](NC(=O)[C@H](CCCCN)NC(=O)[C@H](CCCCN)NC(=O)[C@H](CCCNC(=N)N)NC(=O)[C@H](CCCNC(=N)N)NC(=O)[C@H](CCC(N)=O)NC(=O)[C@H](CCCNC(=N)N)NC(=O)[C@H](CCCNC(=N)N)NC(=O)[C@H](CCCNC(=N)N)NC(=O)CCCCCNC(=S)Nc1ccc2c(c1)C(=O)OC21c2ccc(O)cc2Oc2cc(O)ccc21)C(N)=O [Tat57-49],cellular uptake relative to Tat49-57,Jurkat cells [1],more effective at entering Jurkat cells then Tat49-57
"N=C(N)NCCC[C@H](NC(=O)[C@H](CCCNC(=N)N)NC(=O)[C@H](CCCNC(=N)N)NC(=O)[C@H](CCC(N)=O)NC(=O)[C@H](CCCNC(=N)N)NC(=O)[C@H](CCCNC(=N)N)NC(=O)[C@H](CCCCN)NC(=O)[C@H](CCCCN)NC(=O)[C@H](CCCNC(=N)N)NC(=O)CCCCCNC(=S)Nc1ccc2c(c1)C(=O)OC21c2ccc(O)cc2Oc2cc(O)ccc21)C(N)=O [Tat49-57, reference compound]",Km,Jurkat cells [2],770 µM
same,Vmax,Jurkat cells [2],0.38
same,cellular uptake relative to Tat49-57,Jurkat cells [1],between that of R6 and R7
"CC1(C)O[C@@H]2C[C@H]3[C@@H]4CCC5=CC(=O)C=C[C@]5(C)[C@@]4(F)[C@@H](O)C[C@]3(C)[C@]2(C(=O)CO)O1 [triamcinolone acetonide, reference compound]",reduction in ear inflammation,[3]; 0.1% topical,34.1%±6.3
"N=C(N)NCCC[C@H](NC(=O)[C@H](CCCNC(=N)N)NC(=O)[C@H](CCCNC(=N)N)NC(=O)[C@H](CCC(N)=O)NC(=O)[C@H](CCCNC(=N)N)NC(=O)[C@H](CCCNC(=N)N)NC(=O)[C@H](CCCCN)NC(=O)CCCCCNC(=S)Nc1ccc2c(c1)C(=O)OC21c2ccc(O)cc2Oc2cc(O)ccc21)C(N)=O [Tat51-57, Fl-ahx-KRRQRRR] ({FITC-Ahx}-KRRQRRR-NH2)",additional loss of intracellular fluorescence from the one amino acid truncated analogs,Jurkat cells [1],did not further diminish the amount of internalization
"N=C(N)NCCC[C@H](NC(=O)[C@H](CCC(N)=O)NC(=O)[C@H](CCCNC(=N)N)NC(=O)[C@H](CCCNC(=N)N)NC(=O)[C@H](CCCCN)NC(=O)[C@H](CCCCN)NC(=O)[C@H](CCCNC(=N)N)NC(=O)CCCCCNC(=S)Nc1ccc2c(c1)C(=O)OC21c2ccc(O)cc2Oc2cc(O)ccc21)C(N)=O [Tat49-55, Fl-ahx-RKKRRQR] ({FITC-Ahx}-RKKRRQR-NH2)",additional loss of intracellular fluorescence from the one amino acid truncated analogs,Jurkat cells [1],60%
R7 (SEQ ID NO:3): heptamer that consists of L-arginine residues; SEQ ID NO:3 (RRRRRRR),reduction in ear inflammation,"[3]; 1% topical, 1, 5 and 20 h after restimulation, measured 24 hours",No reduction of inflammation was observed
C[C@H](NC(=O)[C@H](CCCNC(=N)N)NC(=O)[C@H](CCCNC(=N)N)NC(=O)[C@H](CCCCN)NC(=O)[C@H](CCCCN)NC(=O)[C@H](CCCNC(=N)N)NC(=O)CCCCCNC(=S)Nc1ccc2c(c1)C(=O)OC21c2ccc(O)cc2Oc2cc(O)ccc21)C(=O)N[C@@H](CCCNC(=N)N)C(=O)N[C@@H](CCCNC(=N)N)C(=O)N[C@@H](CCCNC(=N)N)C(N)=O [A-54] ({FITC-Ahx}-RKKRRARRR-NH2),cellular uptake relative to Tat49-57,Jurkat cells [1],modest decrease in cellular internalization
"N=C(N)NCCC[C@@H](NC(=O)[C@@H](CCCNC(=N)N)NC(=O)[C@@H](CCCNC(=N)N)NC(=O)[C@@H](CCC(N)=O)NC(=O)[C@@H](CCCNC(=N)N)NC(=O)[C@@H](CCCNC(=N)N)NC(=O)[C@@H](CCCCN)NC(=O)[C@@H](CCCCN)NC(=O)[C@@H](CCCNC(=N)N)NC(=O)CCCCCNC(=S)Nc1ccc2c(c1)C(=O)OC21c2ccc(O)cc2Oc2cc(O)ccc21)C(N)=O [d-Tat49-57, F1-ahx-rkkrrqrrr]",cellular uptake relative to Tat49-57,Jurkat cells [1],more effective at entering Jurkat cells then Tat49-57
"N=C(N)NCCC[C@H](NC(=O)[C@H](CCCNC(=N)N)NC(=O)[C@H](CCCNC(=N)N)NC(=O)[C@H](CCCNC(=N)N)NC(=O)[C@H](CCCNC(=N)N)NC(=O)[C@H](CCCNC(=N)N)NC(=O)[C@H](CCCNC(=N)N)NC(=O)[C@H](CCCNC(=N)N)NC(=O)[C@H](CCCNC(=N)N)NC(=O)CCCCCNC(=S)Nc1ccc2c(c1)C(=O)OC21c2ccc(O)cc2Oc2cc(O)ccc21)C(N)=O (single isomer, unassigned) [R9]",Km values fold greater / fold better than Tat49-57,Jurkat cells [2]; Discussion,30 fold
same,Km,Jurkat cells [2],44 µM
same,Vmax,Jurkat cells [2],0.37
same,"rate of entering cells, fold faster than Tat47-59",Jurkat cells [2],~20 fold
"CC[C@H](C)[C@H](NC(=O)[C@H](CCCCN)NC(=O)[C@@H](NC(=O)[C@H](CCC(N)=O)NC(=O)[C@H](CCCNC(=N)N)NC(=O)CCCCCNC(=S)Nc1ccc2c(c1)C(=O)OC21c2ccc(O)cc2Oc2cc(O)ccc21)[C@@H](C)CC)C(=O)N[C@@H](Cc1c[nH]c2ccccc12)C(=O)N[C@@H](Cc1ccccc1)C(=O)N[C@@H](CCC(N)=O)C(=O)N[C@@H](CC(N)=O)C(=O)N[C@@H](CCCNC(=N)N)C(=O)N[C@@H](CCCNC(=N)N)C(=O)N[C@@H](CCSC)C(=O)N[C@@H](CCCCN)C(=O)N[C@@H](Cc1c[nH]c2ccccc12)C(=O)N[C@@H](CCCCN)C(=O)N[C@@H](CCCCN)C(N)=O [Antennapedia43-58, reference compound]",Km,Jurkat cells [2],427 µM
same,Vmax,Jurkat cells [2],0.41
same,"rate of entering cells, fold faster than Tat47-59",Jurkat cells [2],approximately 2 fold
"N=C(N)NCCC[C@@H](NC(=O)[C@@H](CCCCN)NC(=O)[C@@H](CCCCN)NC(=O)[C@@H](CCCNC(=N)N)NC(=O)[C@@H](CCCNC(=N)N)NC(=O)[C@@H](CCC(N)=O)NC(=O)[C@@H](CCCNC(=N)N)NC(=O)[C@@H](CCCNC(=N)N)NC(=O)[C@@H](CCCNC(=N)N)NC(=O)CCCCCNC(=S)Nc1ccc2c(c1)C(=O)OC21c2ccc(O)cc2Oc2cc(O)ccc21)C(N)=O [d-Tat57-49, F1-ahx-rrrqrrkkr]",cellular uptake relative to Tat49-57,Jurkat cells [1],more effective at entering Jurkat cells then Tat49-57
